Source: US4481192A, “Acid-protease inhibiting peptide derivatives” (SANOFI, priority 1982, dated 1984)
Read-outs that look alike come from different tables or passages of the source. Non-standard residues stand in square brackets, D forms with d. Residues, ends and D or L forms follow the SMILES beside them. *: point of attachment. Sta = CC(C)C[C@H](N)[C@@H](O)CC(=O)O; Isovaleryl = CC(C)CC(=O)*; Cbz = O=C(OCc1ccccc1)*; Boc = CC(C)(C)OC(=O)*

Experiments:
Assay type in all cases: biochemical
porcine pepsin = porcine pepsin (Sus scrofa, UniProt P00791); assay: Inhibition of porcine pepsin; conditions: pH 2, substrate bovine haemoglobin, 37° C.
Procedure: The method used is that of TAKAAKI AOYAGI (J. Antibiotics, 24, pages 687-694, 1971). The substrate used is bovine haemoglobin and the enzyme is porcine pepsin.
0.5% strength haemoglobin is hydrolysed with pepsin (1 mcg/ml) at 37° C. in 0.02M KCl-HCl buffer at pH 2.
Preincubation takes place for 3 minutes, followed by incubation for 25 minutes. After precipitation of the proteins with 1.7M perchloric acid, the optical density of the supernatant is determined on a spectrophotometer at 280 nm.
The results are expressed as the percentage inhibition of the maximum optical density obtained in the absence of inhibitor. They are also expressed as an IC50.
(§1) A 10^-3 M stock solution of the peptide is made up in a mixture containing equal volumes of a solution A (19 ml of methanol+1 ml of acetic acid) and a solution B (4 ml of methanol+2 ml of sodium hydroxide solution).
(§2) The subsequent dilutions of the peptide are then prepared in the appropriate buffer in accordance with the procedures described above.

cathepsin D = target: T1, cathepsin D (Bos taurus, UniProt P80209); assay: Enzyme inhibition of cathepsin D; conditions: pH 3.2, substrate bovine haemoglobin, 37° C., incubation 30 minutes
T1 construct: purchased SIGMA C 3138
Procedure: The method used is very similar to the pepsin method (T. AOYAGI, 1971).
The substrate used is bovine haemoglobin and the enzyme is cathepsin D of bovine origin (SIGMA, No.C 3138, batch 26 C-8100).
0.5% strength haemoglobin is hydrolysed with cathepsin D (200 μg/ml) at 37° C. in citrate-phosphate buffer at pH 3.2.
The substrate, the inhibitor and the enzyme are incubated for 30 minutes.
After precipitation of the proteins with 1.7M perchloric acid, the optical density of the supernatant is determined on a spectrophotometer at 280 nm.
The results are expressed as the percentage reduction in the maximum optical density obtained in the absence of inhibitor.
as §1, §2

[1] = target: T2, human plasma renin activity (Homo sapiens, UniProt P00797); assay: Inhibition of the human plasma renin activity (P.R.A.); conditions: 37° C., pool of human plasma
T2 construct: the human plasma contain and the substrate: angiotensinogen, and the enzyme: renin; from tissue; host or cells: pool of human plasma
T2 sequence (P00797 67-406): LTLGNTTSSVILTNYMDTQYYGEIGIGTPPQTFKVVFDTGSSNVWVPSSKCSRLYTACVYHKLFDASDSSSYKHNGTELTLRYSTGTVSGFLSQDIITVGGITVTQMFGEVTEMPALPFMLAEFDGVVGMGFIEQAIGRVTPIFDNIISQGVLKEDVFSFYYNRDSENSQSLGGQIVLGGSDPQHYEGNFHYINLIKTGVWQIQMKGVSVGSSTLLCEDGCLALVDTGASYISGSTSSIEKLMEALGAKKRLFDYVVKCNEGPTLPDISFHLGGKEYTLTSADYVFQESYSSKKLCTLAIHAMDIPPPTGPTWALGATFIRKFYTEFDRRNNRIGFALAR
Procedure: The angiotensin I released during the reaction (the human plasma contain and the substrate: angiotensinogen, and the enzyme: renin) is measured by radioimmunological determination using a kit.
Of course, an inhibitor of the enzyme for conversion of the PMSF (phenylmethylsulphonyl fluoride) is added to the incubation medium.
Two types of experiments were carried out:
one at pH 6, which is the optimum pH for the enzyme reaction with human renin (maleate buffer, incubation: 30 minutes), and
the other at pH 7.4, which is the physiological pH (phosphate buffer, incubation: 60 minutes).
as §1, §2

[2] = pH 6, maleate buffer, incubation 30 minutes, read-out: INHIBITION OF HUMAN P.R.A. (IC50) pH 6
[3] = pH 7.4, phosphate buffer, incubation 60 minutes, read-out: INHIBITION OF HUMAN P.R.A. (IC50) pH 7.4

porcine pepsin, sequence (P00791 60-385): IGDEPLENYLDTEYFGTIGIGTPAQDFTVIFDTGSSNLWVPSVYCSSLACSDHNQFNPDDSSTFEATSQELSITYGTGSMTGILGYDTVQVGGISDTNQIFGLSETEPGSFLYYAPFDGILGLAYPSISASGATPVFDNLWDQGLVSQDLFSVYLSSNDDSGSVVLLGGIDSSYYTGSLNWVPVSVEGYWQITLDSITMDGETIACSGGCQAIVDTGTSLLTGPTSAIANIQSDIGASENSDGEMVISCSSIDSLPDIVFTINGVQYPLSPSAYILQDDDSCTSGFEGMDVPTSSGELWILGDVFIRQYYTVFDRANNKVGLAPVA
T1 sequence (P80209 45-390): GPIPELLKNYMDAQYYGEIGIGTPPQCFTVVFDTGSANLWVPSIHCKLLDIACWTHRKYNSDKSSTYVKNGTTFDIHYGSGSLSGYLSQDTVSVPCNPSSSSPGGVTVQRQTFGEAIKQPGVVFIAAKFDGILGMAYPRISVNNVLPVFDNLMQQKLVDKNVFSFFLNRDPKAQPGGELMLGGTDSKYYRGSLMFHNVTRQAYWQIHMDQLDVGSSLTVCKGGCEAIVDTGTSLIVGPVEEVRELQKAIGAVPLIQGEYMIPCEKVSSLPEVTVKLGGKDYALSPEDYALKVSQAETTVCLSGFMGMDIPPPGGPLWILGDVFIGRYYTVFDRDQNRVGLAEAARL

Q: `COC(=O)C[C@H](O)[C@H](CC(C)C)NC(=O)[C@H](C)NC(=O)C[C@H](O)[C@H](CC(C)C)NC(=O)[C@H](Cc1c[nH]c2ccccc12)NC(=O)[C@H](Cc1c[nH]c2ccccc12)NC(=O)OC(C)(C)C` [SR 41376, Boc--Trp--Trp--Sta--Ala--Sta--OMe] (Boc-WW[Sta]A[Sta]-OMe) was tested. Which IC50 (porcine pepsin) did it give?
A: Its IC50 is 120 nM.

Q: What about the IC50 (cathepsin D) of the same compound?
A: Its IC50 is 130 nM.

Q: With `COC(=O)C[C@H](O)[C@H](CC(C)C)NC(=O)[C@H](C)NC(=O)C[C@H](O)[C@H](CC(C)C)NC(=O)[C@@H](NC(=O)[C@H](Cc1ccccc1)NC(=O)OCc1ccccc1)C(C)C` [SR 41405, Z--Phe--Val--Sta--Ala--Sta--OMe] (Cbz-FV[Sta]A[Sta]-OMe) as the compound, how does the IC50 (porcine pepsin) read?
A: The IC50 was 65 nM.

Q: What about the IC50 (cathepsin D) of the same compound?
A: Its IC50 is 95 nM.

Q: `COC(=O)C[C@H](O)[C@H](CC(C)C)NC(=O)[C@H](C)NC(=O)C[C@H](O)[C@H](CC(C)C)NC(=O)[C@H](Cc1ccccc1)NC(=O)[C@H](Cc1ccccc1)NC(=O)OC(C)(C)C` [SR 41331, Boc--Phe--Phe--Sta--Ala--Sta--OMe] (Boc-FF[Sta]A[Sta]-OMe) was tested. Which IC50 (porcine pepsin) did it give?
A: The IC50 was 14 nM.

Q: And the IC50 (cathepsin D)?
A: The IC50 was 180 nM.

Q: And the IC50 [1, 2]?
A: The IC50 was 3.5 nM.

Q: What about the IC50 [1, 3] of the same compound?
A: The IC50 was 190 nM.

Q: For `COC(=O)C[C@H](O)[C@H](CC(C)C)NC(=O)[C@H](C)NC(=O)C[C@H](O)[C@H](CC(C)C)NC(=O)[C@@H](NC(=O)[C@H](Cc1c[nH]c2ccccc12)NC(=O)OCc1ccccc1)C(C)C` [SR 41485, Z--Trp--Val--Sta--Ala--Sta--OMe] (Cbz-WV[Sta]A[Sta]-OMe), which IC50 (porcine pepsin) is on record?
A: Its IC50 is 29 nM.

Q: What about the IC50 (cathepsin D) of the same compound?
A: The IC50 was 75 nM.

Q: And the IC50 [1, 2]?
A: Its IC50 is 6.75 nM.

Q: And the IC50 [1, 3]?
A: The IC50 was 150 nM.

Q: Which IC50 (cathepsin D) does the source give for `COC(=O)C[C@H](O)[C@H](CC(C)C)NC(=O)[C@H](C)NC(=O)C[C@H](O)[C@H](CC(C)C)NC(=O)[C@H](Cc1c[nH]cn1)NC(=O)[C@H](Cc1c[nH]c2ccccc12)NC(=O)OC(C)(C)C` [SR 41619, Boc--Trp--His--Sta--Ala--Sta--OMe] (Boc-WH[Sta]A[Sta]-OMe) here?
A: Its IC50 is 750 nM.

Q: `COC(=O)C[C@H](O)[C@H](CC(C)C)NC(=O)[C@H](C)NC(=O)C[C@H](O)[C@H](CC(C)C)NC(=O)[C@H](Cc1c[nH]cn1)NC(=O)[C@H](Cc1ccccc1)NC(=O)OC(C)(C)C` [SR 41395, Boc--Phe--His--Sta--Ala--Sta--OMe] (Boc-FH[Sta]A[Sta]-OMe) was tested. Which IC50 (porcine pepsin) did it give?
A: The IC50 was 1300 nM.

Q: And the IC50 (cathepsin D)?
A: Its IC50 is 870 nM.

Q: `CC(C)C[C@H](NC(=O)[C@H](C)NC(=O)C[C@H](O)[C@H](CC(C)C)NC(=O)[C@H](Cc1c[nH]cn1)NC(=O)[C@H](Cc1ccccc1)NC(=O)OC(C)(C)C)[C@@H](O)CC(=O)O` [SR 41492, Boc--Phe--His--Sta--Ala--Sta--OH] (Boc-FH[Sta]A[Sta]-OH) was tested. Which IC50 (porcine pepsin) did it give?
A: Its IC50 is 550 nM.

Q: What about the IC50 (cathepsin D) of the same compound?
A: The IC50 was 700 nM.

Q: And the IC50 [1, 3]?
A: The IC50 was 45 nM.

Q: `CC[C@H](C)[C@H](NC(=O)OC(C)(C)C)C(=O)N[C@@H](Cc1c[nH]cn1)C(=O)N[C@@H](CC(C)C)[C@@H](O)CC(=O)N[C@@H](C)C(=O)N[C@@H](CC(C)C)[C@@H](O)CC(=O)OC` [SR 42019, Boc--Ile--His--Sta--Ala--Sta--OMe] (Boc-IH[Sta]A[Sta]-OMe) was tested. Which IC50 (porcine pepsin) did it give?
A: The IC50 was 73 nM.

Q: And the IC50 [1, 2]?
A: The IC50 was 110 nM.

Q: Which results are given for `COC(=O)C[C@H](O)[C@H](CC(C)C)NC(=O)[C@H](C)NC(=O)C[C@H](O)[C@H](CC(C)C)NC(=O)[C@H](Cc1ccccc1)NC(=O)[C@H](Cc1ccccc1)NC(=O)CC(C)C` [SR 41764, iVa--Phe--Phe--Sta--Ala--Sta--OMe] (Isovaleryl-FF[Sta]A[Sta]-OMe)?
A: IC50 (porcine pepsin): 42 nM; IC50 [1, 2]: 12 nM; IC50 [1, 3]: 310 nM
